Laboratory results published in patent publication US11712444B2, “Compositions and methods of treating neuronal injury” (CHILDREN'S MEDICAL CENTER CORPORATION, priority 2019, dated 2023).
Entries after “also recorded” stand apart in the source; their conditions may differ.

What was measured:
[1] = tested on: metals in the retina, i.e., copper and zinc; assay: Autometallography (AMG) of metals in the retina after optic nerve crush (ONC); assay type: in vivo, mice; conditions: day 1 post ONC; intraocular injection immediately after ONC; TPEN 100 μM, PSP-2 50 μM, PSP-2+Cu 50 μM
Protocol: Metals in the retina, i.e., copper and zinc, were visualized using autometallography. […] To determine whether copper chelators had any effect on this increase, the selective copper chelator PSP-2 was used. Mice were administered 3 μL of DMSO 1% in PBS (control), 100 μM TPEN (10 mM TPEN stock in DMSO diluted in PBS (DMSO 1%)), 50 μM PSP-2 (5 mM PSP-2 stock in DMSO diluted in PBS (DMSO 1%)), or 50 μM PSP-2+Cu (10 mM PSP-2+Cu in de-O2 water diluted in PBS (DMSO 1%) immediately after unilateral optic nerve crush (ONC). In these studies, the normal, intact retina was used as a reference.
(§1) Experiments were performed in 8 to 9-week-old 129S1/SvImJ male mice (Jackson Laboratory, Bar Harbor, Me.). Mice were anesthetized prior to ONC surgery with ketamine and xylazine. The ONC surgery and euthanization of mice were performed as previously described in U.S. Publication No. 2014/079741, the contents of which are hereby incorporated by reference in their entirety. Briefly, a conjunctival incision was made over the dorsal aspect of one eye, which was then gently rotated downward in the orbit. The orbital muscles were slightly separated to expose the optic nerve at its exit from the globe, which was then crushed for 5 seconds with jewelers' forceps (Dumont number 5) near the back of the eye (within 0.5 mm). […]

[2] = cited from earlier work
[3] = tested on: HT22 cell culture; assay: Glutamate toxicity in HT22 cell culture; assay type: cell-based; conditions: PSP-2 50 μM (FIG. 9)
Excerpt: Glutamate toxicity is a model of ferroptotic cell death. Glutamate toxicity and ferroptosis are likely involved in retinal ganglion cell (RGC) death post-optic nerve crush (ONC).

[4] = tested on: GAP-43-positive axons in the optic nerve; assay: Axon regeneration after optic nerve crush (GAP-43-positive axons); assay type: in vivo, mice
Protocol: To determine if copper chelation promotes axon regeneration after nerve injury, mice were administered treatments as described in Example 1 after bilateral ONC. […] An antibody against GAP-43 was used to detect growing axons (FIG. 4A-4D).
as §1, with “mm). ONC was performed unilaterally for all autometallography experiments and bilaterally for all regeneration experiments. Treatments were administered unilaterally for all autometallography experiments and bilaterally for all regeneration experiments. Post-ONC treatments were administered by intraocular injection immediately after ONC surgery. Mice were sacrificed with an overdose of anesthesia. Tissue samples were snap-frozen for all autometallography experiments. Mice were perfused with saline followed by 4% paraformaldehyde (PFA) and the tissue samples were post-fixed in PFA for regeneration experiments.” for “mm).”
(§2) Axon growth was determined by counting GAP-43-positive axons extending 0.5 and 1 mm from the crush site. The cross-sectional width of the nerve was measured at the 0.5 and 1 mm points. The number of axons per millimeter of nerve width was calculated and then averaged for the number of sections analyzed. The estimated number of axons per nerve was then calculated. Retinal ganglion cell survival was measured as the number of βIII-tubulin positive cells per mm^2.

[5] = tested on: retinal ganglion cells; assay: Retinal ganglion cell survival after optic nerve crush (βIII-tubulin positive cells); assay type: in vivo, mice; conditions: two weeks post ONC
Protocol: as §1, with “mm). ONC was performed unilaterally for all autometallography experiments and bilaterally for all regeneration experiments.” for “mm).”
as §2

[6] = tested on: astrocyte-rich primary cortical neurons; assay: DTDP (dithiodipyridine) toxicity in astrocyte-rich primary cortical neurons; assay type: cell-based; conditions: PSP-2 3 μM (FIG. 8)
Protocol: FIG. 8 is a bar plot showing that DTDP (dithiodipyridine) toxicity in astrocyte-rich primary cortical neurons was reversed with PSP-2 (3 μM). DTDP is an agent oxidizing metallothioneins. Oxidation of metallothioneins leads to liberation of metals (zinc and copper) and cell death.

c1ccc(CN(CCN(Cc2ccccn2)Cc2ccccn2)Cc2ccccn2)nc1 [TPEN, N, N, N′, N′-tetrakis(2-pyridylmethyl) ethylenediamine, reference compound]
autometallography (AMG) signal in the retina [1]: reduced the autometallography signal

CP(C)(=S)CP(CP(C)(C)=S)c1cccc2cccc(P(CP(C)(C)=S)CP(C)(C)=S)c12 [naphPS]
dissociation constant, Cu(I) [2]: 0.8 zM

CP(C)(=S)CP(CP(C)(C)=S)c1ccccc1P(CP(C)(C)=S)CP(C)(C)=S [PhenPS]
dissociation constant, Cu(I) [2]: about 0.6 zM

CP(C)(=S)CP(CCP(CP(C)(C)=S)CP(C)(C)=S)CP(C)(C)=S [PSP-2]
autometallography (AMG) signal in the retina [1]: reduced the autometallography signal; also recorded: reduced metal autometallography (AMG) signal
glutamate-induced cell death [3]: partially alleviated
axon regeneration, dose dependence ([4]; 2 weeks post ONC, FIG. 7A): improved axon regeneration in a dose-dependent manner
axon regeneration at 0.5 mm distance from the site of ONC ([4]; two weeks post ONC, 0.5 mm, PSP-2 50 μM intraocular): improved axon regeneration
axon regeneration at 1.0 mm distance from the site of ONC ([4]; two weeks post ONC, 1.0 mm, PSP-2 50 μM intraocular): improved axon regeneration
survival of retinal ganglion cells [5]: did not significantly affect survival of retinal ganglion cells; also recorded: did not improve retinal ganglion cell (RGC) survival
DTDP-induced cell death [6]: reversed
